Results reported in patent US11820804B2, “Peptide-based inhibitors of growth hormone action and methods of use thereof” (Ohio University, priority 2018, dated 2023).

Columns and labels:
Type in all cases: cell-based
[1] = system: hGH mediated STAT5 phosphorylation in IM9 human lymphoblast cells; experiment: Western blot of hGH mediated STAT5 phosphorylation in IM9 cells; conditions: co-treated with 2.5 nM recombinant hGH, peptide at 25 and 250 nM, 20 minutes
Protocol: (§1) Human malignant melanoma cell lines—SK-MEL-28, SK-MEL-30, human lymphoblast IM9 cells, mouse fibroblast L cells were obtained from American Type Culture Collection (ATCC; Manassas, Va.). SK-MEL-28 were grown and maintained in EMEM media (ATCC), while IM9 and L cells were grown in RPMI-1640 (ATCC) and DMEM (ATCC) respectively, as indicated by ATCC protocols. Complete growth media was supplemented with 10% fetal bovine serum (FBS; ATCC) and 1×antibiotic-antimycotic (Thermo Fisher Scientific, Waltham, Mass.). Cells were grown at 37° C./5% CO2 in a humidified incubator. Media was replaced every 48 hours. No hGH was present in the media or added externally unless specifically mentioned. For hGH treatment of adherent cells, 12-16 hours after seeding the cells were serum-starved for 4 hours in serum free growth media and hGH (or PBS as control) was added at the mentioned concentrations (50 ng/mL=2.5 nM or other concentrations). […]
(§2) Western blotting was performed following established lab procedures. […] Membranes were then washed and treated with West Femto Chemiluminiscence® detection reagents (Thermo Fisher Scientific) and the chemiluminiscence signal was captured using a GelDoc® (Biorad) fluorescence reader. Densitometry analysis of the blots was done by measured band-intensity from the area-under-curve using ImageJ® software. […]

[2] = system: hGH mediated STAT5 phosphorylation in L mouse fibroblasts cells; experiment: Western blot of hGH mediated STAT5 phosphorylation in L cells; conditions: L mouse fibroblast cells, co-treated with 2.5 nM recombinant hGH, peptide at 25 and 250 nM, 20 minutes
Protocol: as §1, §2

[3] = system: tyrosine pSTAT5 levels following hGH stimulation; experiment: tyrosine pSTAT5 levels following hGH stimulation (cells not named at the place); conditions: general statement, cell line not named
From the text: A hallmark of hGH action is rapid tyrosine phosphorylation of the STAT5(A and B) transcription factor protein following binding of hGH to hGHR and transactivation of hGHR associated JAK2. The phosphorylation event is rapid (minutes following hGH addition) and has been used as a readout of hGHR activation. Inhibitors of hGH action blocks hGH-hGHR mediated STAT5 tyrosine phosphorylation in many cells, including IM9, SK-MEL-28, mouse fibroblasts, and other cells which express hGHR.
as §1, with “mentioned.” for “mentioned. For hGH treatment of adherent cells, 12-16 hours after seeding the cells were serum-starved for 4 hours in serum free growth media and hGH (or PBS as control) was added at the mentioned concentrations (50 ng/mL=2.5 nM or other concentrations).”

[4] = system: hGH mediated STAT5 phosphorylation in SK-MEL-28 human melanoma cells; experiment: Western blot of hGH mediated STAT5 phosphorylation in SK-MEL-28 cells; conditions: co-treated with 2.5 nM recombinant hGH, peptide at 25 and 250 nM, 20 minutes
Protocol: as §1, §2

## Tyr Ile Pro Lys Glu Gln Lys Tyr Ser Phe Leu Gln Asn Pro Gln Thr (YIPKEQKYSFLQNPQT; listed as Homo sapiens) [S1H, 16-amino acid peptide mimicking hGH site 1 helix, residues 36-51]
[1]
  hGH mediated STAT5 phosphorylation (phospho-STAT5 levels): downregulates hGH mediated STAT5 phosphorylation
[2]
  hGH mediated STAT5 phosphorylation (phospho-STAT5 levels): downregulates hGH mediated STAT5 phosphorylation
[3]
  tyrosine pSTAT5 levels following hGH stimulation: robustly blocks tyrosine pSTAT5 levels following hGH stimulation, in a dose-dependent manner
[4]
  hGH mediated STAT5 phosphorylation (pSTAT5 levels): downregulates hGH mediated STAT5 phosphorylation
